From patent publication US11254663B2 (BRISTOL-MYERS SQUIBB COMPANY, priority 2019, dated 2022)
pEC50: −log10 of the molar value.

target: FXR (Homo sapiens (Human), UniProt Q96RI1); test: transient human FXR/Gal4-luciferase reporter assay; type: cell-based; conditions: not given
Summary of the method: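 HEK293 cells stably carrying a 5×Gal4 response element–firefly luciferase reporter were transiently transfected overnight with a Gal4 DBD–human FXR LBD fusion plasmid. Compound was added in DMSO and cells were incubated overnight at 37 °C, 5% CO2. Activity was read as Steady-Glo luminescence.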

Sequence of FXR (Q96RI1 262-486): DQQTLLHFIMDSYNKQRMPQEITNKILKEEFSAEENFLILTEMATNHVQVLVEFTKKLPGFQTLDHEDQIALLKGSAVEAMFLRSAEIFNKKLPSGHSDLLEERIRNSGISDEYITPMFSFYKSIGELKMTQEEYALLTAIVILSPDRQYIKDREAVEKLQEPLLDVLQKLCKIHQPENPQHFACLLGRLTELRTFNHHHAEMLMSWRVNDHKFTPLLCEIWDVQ

| SMILES | pEC50 |
| --- | --- |
| Cc1nc2ccc(-c3cncc(N(CC45CCC(c6nc(C(C)(C)C)no6)(CC4)CC5)C(=O)C45CC(F)(C4)C5)c3)cc2s1 [Example 474, N-((4-(3-(tert-butyl)-1,2,4-oxadiazol-5-yl)bicyclo[2.2.2]octan-1-yl)methyl)-3-fluoro-N-(5-(2-methylbenzo[d]thiazol-6-yl)pyridin-3-yl)bicyclo[1.1.1]pentane-1-carboxamide] | 6.27 |
| COc1ncc(-c2ccnc(N(CC34CCC(c5noc(C(C)(C)C)n5)(CC3)CC4)C(=O)C34CC(F)(C3)C4)c2)cn1 [Example 538, N-((4-(5-(tert-butyl)-1,2,4-oxadiazol-3-yl)bicyclo[2.2.2]octan-1-yl)methyl)-3-fluoro-N-(4-(2-methoxypyrimidin-5-yl)pyridin-2-yl)bicyclo[1.1.1]pentane-1-carboxamide] | 6.92 |
| CCOc1ncc(-c2cccc(N(CC34CCC(c5nc(C(F)F)no5)(CC3)CC4)C(=O)C34CC(F)(C3)C4)c2)cn1 [Example 470, N-((4-(3-(difluoromethyl)-1,2,4-oxadiazol-5-yl)bicyclo[2.2.2]octan-1-yl)methyl)-N-(3-(2-ethoxypyrimidin-5-yl)phenyl)-3-fluorobicyclo[1.1.1]pentane-1-carboxamide] | 6.79 |

same assay, conditions: Gal4-hFXR fusion construct, HEK293 reporter cells; response relative to 8 μM GW-4064

| SMILES | pEC50 |
| --- | --- |
| CCOc1ncc(-c2cccc(N(CC34CCC(c5nc(C6CC6)no5)(CC3)OC4)C(=O)C34CC(F)(C3)C4)c2)cn1 [Example 353, N-((1-(3-cyclopropyl-1,2,4-oxadiazol-5-yl)-2-oxabicyclo[2.2.2]octan-4-yl)methyl)-N-(3-(2-ethoxypyrimidin-5-yl)phenyl)-3-fluorobicyclo[1.1.1]pentane-1-carboxamide] | 6.48 |
| CS(=O)(=O)Nc1ccc(-c2cccc(N(CC34CCC(c5cnc(C(F)(F)F)nc5)(CC3)OC4)C(=O)C34CC(F)(C3)C4)c2)cc1 [Example 419, 3-fluoro-N-(4′-(methylsulfonamido)-[1,1′-biphenyl]-3-yl)-N-((1-(2-(trifluoromethyl)pyrimidin-5-yl)-2-oxabicyclo[2.2.2]octan-4-yl)methyl)bicyclo[1.1.1]pentane-1-carboxamide] | 6.28 |
| CCOc1ncc(-c2cncc(N(CC34CCC(c5nc(C(C)(C)C)no5)(CC3)CC4)C(=O)C34CC(F)(C3)C4)c2)cn1 [Example 472, N-((4-(3-(tert-butyl)-1,2,4-oxadiazol-5-yl)bicyclo[2.2.2]octan-1-yl)methyl)-N-(5-(2-ethoxypyrimidin-5-yl)pyridin-3-yl)-3-fluorobicyclo[1.1.1]pentane-1-carboxamide] | 6.12 |
| CC(C)S(=O)(=O)Nc1ccc(-c2cccc(N(CC34CCC(c5noc(C(C)(C)C)n5)(CC3)CC4)C(=O)C34CC(F)(C3)C4)c2)cc1 [Example 448, N-((4-(5-(tert-butyl)-1,2,4-oxadiazol-3-yl)bicyclo[2.2.2]octan-1-yl)methyl)-3-fluoro-N-(4′-((1-methylethyl)sulfonamido)-[1,1′-biphenyl]-3-yl)bicyclo[1.1.1]pentane-1-carboxamide] | 6.56 |
| CCOc1ccc(-c2cncc(N(CC34CCC(c5nc(C6CC6)no5)(CC3)CC4)C(=O)C34CC(F)(C3)C4)c2)cn1 [Example 426, N-((4-(3-cyclopropyl-1,2,4-oxadiazol-5-yl)bicyclo[2.2.2]octan-1-yl)methyl)-N-(6′-ethoxy-[3,3′-bipyridin]-5-yl)-3-fluorobicyclo[1.1.1]pentane-1-carboxamide] | 6.38 |
| Cc1nc2ccc(-c3cccc(N(CC45CCC(c6ccc(C#N)cc6)(CC4)OC5)C(=O)C45CC(F)(C4)C5)c3)cc2s1 [Example 568, N-((1-(4-Cyanophenyl)-2-oxabicyclo[2.2.2]octan-4-yl)methyl)-3-fluoro-N-(3-(2-methylbenzo[d]thiazol-6-yl)phenyl)bicyclo[1.1.1]pentane-1-carboxamide] | 5.61 |
| CCOc1cnc(-c2cccc(N(CC34CCC(c5nc(C(C)(C)C)no5)(CC3)CC4)C(=O)C34CC(F)(C3)C4)c2)nc1 [Example 370, N-((4-(3-(tert-butyl)-1,2,4-oxadiazol-5-yl)bicyclo[2.2.2]octan-1-yl)methyl)-N-(3-(5-ethoxypyrimidin-2-yl)phenyl)-3-fluorobicyclo[1.1.1]pentane-1-carboxamide] | 6.92 |
| Cn1ncc2cc(C#N)c(-c3cccc(N(CC45CCC(c6nc(C7CC7)no6)(CC4)CC5)C(=O)C45CC(F)(C4)C5)c3)nc21 [Example 313, N-(3-(5-cyano-1-methyl-1H-pyrazolo[3,4-b]pyridin-6-yl)phenyl)-N-((4-(3-cyclopropyl-1,2,4-oxadiazol-5-yl)bicyclo[2.2.2]octan-1-yl)methyl)-3-fluorobicyclo[1.1.1]pentane-1-carboxamide] | 6.71 |
| CC(C)(C#N)Oc1ccc(-c2cccc(N(CC34CCC(c5noc(C6(F)CC6)n5)(CC3)CC4)C(=O)C3CC(O)(C(F)(F)F)C3)c2)cc1 (stereo not drawn) [Example 583, (cis)-N-(4′-((2-cyanopropan-2-yl)oxy)-[1,1′-biphenyl]-3-yl)-N-((4-(5-(1-fluorocyclopropyl)-1,2,4-oxadiazol-3-yl)bicyclo[2.2.2]octan-1-yl)methyl)-3-hydroxy-3-(trifluoromethyl)cyclobutane-1-carboxamide] | 7.31 |
| CC(C)(C)c1nc(C23CCC(CN(C(=O)C45CC(F)(C4)C5)c4cccc(-c5ccc6[nH]c(=O)oc6c5)c4)(CC2)CC3)no1 [Example 447, N-((4-(5-(tert-butyl)-1,2,4-oxadiazol-3-yl)bicyclo[2.2.2]octan-1-yl)methyl)-3-fluoro-N-(3-(2-oxo-2,3-dihydrobenzo[d]oxazol-6-yl)phenyl)bicyclo[1.1.1]pentane-1-carboxamide] | 7.06 |
| COc1cc(-c2cccc(N(CC34CCC(c5nc(C6CC6)no5)(CC3)CC4)C(=O)C34CC(F)(C3)C4)c2)cn2ncnc12 [Example 264, N-((4-(3-cyclopropyl-1,2,4-oxadiazol-5-yl)bicyclo[2.2.2]octan-1-yl)methyl)-3-fluoro-N-(3-(8-methoxy-[1,2,4]triazolo[1,5-a]pyridin-6-yl)phenyl)bicyclo[1.1.1]pentane-1-carboxamide] | 5.82 |
| CCOc1cnc(-c2cccc(N(CC34CCC(c5noc(C(C)(C)C)n5)(CC3)CC4)C(=O)C34CC(F)(C3)C4)c2)nc1 [Example 451, N-((4-(5-(tert-butyl)-1,2,4-oxadiazol-3-yl)bicyclo[2.2.2]octan-1-yl)methyl)-N-(3-(5-ethoxypyrimidin-2-yl)phenyl)-3-fluorobicyclo[1.1.1]pentane-1-carboxamide] | 7.33 |
| CC1(c2nc(C34CCC(CN(C(=O)C56CC(F)(C5)C6)c5cccc(-c6ccc(OC(F)F)cc6)c5)(CC3)CC4)no2)CC1 [Example 405, N-(4′-(difluoromethoxy)-[1,1′-biphenyl]-3-yl)-3-fluoro-N-((4-(5-(1-methylcyclopropyl)-1,2,4-oxadiazol-3-yl)bicyclo[2.2.2]octan-1-yl)methyl)bicyclo[1.1.1]pentane-1-carboxamide] | 7.28 |
| CC1(C(=O)N(CC23CCC(c4noc(C(C)(C)C)n4)(CC2)CC3)c2cccc(-c3ccc(OC(F)F)cc3)c2)COC1 [Example 515, N-((4-(5-(tert-butyl)-1,2,4-oxadiazol-3-yl)bicyclo[2.2.2]octan-1-yl)methyl)-N-(4′-(difluoromethoxy)-[1,1′-biphenyl]-3-yl)-3-methyloxetane-3-carboxamide] | 6.45 |
| Cc1cnc(-c2cccc(N(CC34CCC(c5noc(C(C)(C)C)n5)(CC3)CC4)C(=O)C34CC(F)(C3)C4)c2)nc1 [Example 454, N-((4-(5-(tert-butyl)-1,2,4-oxadiazol-3-yl)bicyclo[2.2.2]octan-1-yl)methyl)-3-fluoro-N-(3-(5-methylpyrimidin-2-yl)phenyl)bicyclo[1.1.1]pentane-1-carboxamide] | 7.51 |
| CC(C)(O)c1ccc(-c2cccc(N(CC34CCC(c5noc(C(C)(C)F)n5)(CC3)CC4)C(=O)NC3CCC(O)(C(F)(F)F)CC3)c2)cc1 (single isomer, unassigned) [Example 601, 1-((4-(5-(2-fluoropropan-2-yl)-1,2,4-oxadiazol-3-yl)bicyclo[2.2.2]octan-1-yl)methyl)-3-(4-hydroxy-4-(trifluoromethyl)cyclohexyl)-1-(4′-(2-hydroxypropan-2-yl)-[1,1′-biphenyl]-3-yl) urea] | 6.61 |
| CC(C)(O)c1ccc(-c2ccnc(N(CC34CCC(c5ccc(C(C)(F)F)cn5)(CC3)CC4)C(=O)OC(C)(C)C(F)(F)F)c2)nc1 [Example 607, 1,1,1-trifluoro-2-methylpropan-2-yl ((4-(5-(1,1-difluoroethyl)pyridin-2-yl)bicyclo[2.2.2]octan-1-yl)methyl)(5-(2-hydroxypropan-2-yl)-[2,4′-bipyridin]-2′-yl)carbamate] | 7.02 |
| COc1cc(-c2cccc(N(CC34CCC(c5nnc(C)s5)(CC3)CC4)C(=O)C3CCC(F)(F)C3)c2)ccn1 (centres unmarked) [Example 235, 3,3-difluoro-N-(3-(2-methoxypyridin-4-yl)phenyl)-N-((4-(5-methyl-1,3,4-thiadiazol-2-yl)bicyclo[2.2.2]octan-1-yl)methyl)cyclopentane-1-carboxamide] | 6.05 |
| COc1cc(-c2cccc(N(CC34CCC(c5nnc(C)s5)(CC3)CC4)C(=O)C3CC(O)(C(F)(F)F)C3)c2)ccn1 [Example 236, (1S,3S)-3-hydroxy-N-(3-(2-methoxypyridin-4-yl)phenyl)-N-((4-(5-methyl-1,3,4-thiadiazol-2-yl)bicyclo[2.2.2]octan-1-yl)methyl)-3-(trifluoromethyl)cyclobutane-1-carboxamide] | 5.81 |
| Cc1nc2ccc(-c3cccc(N(CC45CCC(c6cc(C(F)(F)F)ccn6)(CC4)CC5)C(=O)C45CC(F)(C4)C5)c3)cc2s1 [Example 356, 3-fluoro-N-(3-(2-methylbenzo[d]thiazol-6-yl)phenyl)-N-((4-(4-(trifluoromethyl)pyridin-2-yl)bicyclo[2.2.2]octan-1-yl)methyl)bicyclo[1.1.1]pentane-1-carboxamide] | 6.10 |
